Laboratory results: patent publication US20030166583A1, “Dermal cytochrome P450 1A inhibitors and enhancers” (priority 2002, published 2003)
Entries after “also recorded” stand apart in the source; their conditions may differ.

Assays:
[1] = tested on: dermal CYP1A; test: in vitro; conditions: for inhibitory effect on dermal CYP1A activity, in words: at certain concentration (1, 10 or 100 μM); for enhancing effect on dermal CYP1A activity, in words: at certain concentrations (1, 10 or 100 μM)
Text: (§1) Nude mice were sacrificed by decapitation.
(§2) The precipitate containing the microsomes was obtained.

[2] = tested on: CYP1A; test: in vitro; conditions: nude, mouse
Text: as §1, §2

[3] = tested on: liver CYP1A; test: Liver microsomal CYP1A enzymatic activity, inhibition or enhancement; conditions: for enhancing effect on liver CYP1A activity, in words / inhibitory effect on liver CYP1A activity, in words: at certain concentration (1, 10 or 100 μM); for liver CYP1A activity (% of control group): liver microsomes
[4] = tested on: CYP1A; test: as above; conditions: nude, mouse, liver microsomes, pH 7.8, probe 7-ethoxyresorufin
[5] = pH 7.8, dermal CYP1A activity (% of control group)
[6] = pH 7.8, inhibition of dermal CYP1A activity
[7] = compound 1 μM, skin microsomes, mean of at least 3 repeats
[8] = compound 10 μM, skin microsomes, mean of at least 3 repeats
[9] = compound 100 μM, skin microsomes, mean of at least 3 repeats

SMILES | inhibitory effect on dermal CYP1A activity, in words [1] | dermal CYP1A activity (% of control group) [1, 7] | dermal CYP1A activity (% of control group) [1, 8] | dermal CYP1A activity (% of control group) [1, 9] | enhancing effect on liver CYP1A activity, in words [3] | liver CYP1A activity (% of control group) ([3]; compound 1 μM) | liver CYP1A activity (% of control group) ([3]; compound 10 μM) | liver CYP1A activity (% of control group) ([3]; compound 100 μM) | other results
COc1ccc([C@@H]2CC(=O)c3c(O)cc(O)cc3O2)cc1O [Hesperetin] | – | – | – | – | – | – | – | – | dose dependence of the inhibitory effect on dermal CYP1A [1]: the higher the hesperetin concentration, the lower the inhibitory effect; dermal CYP1A activity (% of control group) ([1]; nude, mouse, 10 min, 1 µM, pH 7.8): 6.89%; activity at 10 min, 1 µM [2, 5]: ~7%; activity at 10 min, 10 µM [2, 5]: 24.6%; activity at 10 min, 100 µM [2, 5]: 66%; inhibition at 10 min, 1 µM [2, 6]: > 90%
COc1ccc([C@@H]2CC(=O)c3c(O)cc(O[C@@H]4O[C@H](CO[C@@H]5O[C@@H](C)[C@H](O)[C@@H](O)[C@H]5O)[C@@H](O)[C@H](O)[C@H]4O)cc3O2)cc1O [Hesperidin] | inhibition effects | 62.61% | 52.72% | 57.75% | enhancing effect | 99.65% | 87.38% | 102.94% | inhibition of dermal CYP1A activity ([1]; compound 10 μM): about 47%; inhibitory effect on liver CYP1A activity, in words [3]: inhibitory effects
O=c1cc(-c2ccc(O)c(O)c2)oc2cc(O[C@@H]3O[C@H](CO)[C@@H](O)[C@H](O)[C@H]3O)cc(O)c12 [Luteolin-7-glucoside] | inhibition effects | 105.07% | 88.05% | 2.53% | enhancing effect | 109.79% | 119.53% | 123.78% | inhibitory effect on dermal CYP1A activity, in words ([1]; listed as luteolin-7-glycoside): strongest inhibitory effect; also recorded: most effective inhibitors; enhancing effect on dermal CYP1A activity, in words [1]: enhancing effects; inhibition of dermal CYP1A activity ([1]; compound 100 μM, 100 µM): about 97%
O=c1cc(-c2ccc(O)c(O)c2)oc2cc(O)cc(O)c12 [Luteolin] | – | – | – | – | – | – | – | – | activity at 10 min, 1 µM [2, 5]: 59.1%; activity at 10 min, 10 µM [2, 5]: 19.4%; activity at 10 min, 100 µM [2, 5]: 10.4%; inhibition at 10 min, 100 µM [2, 6]: ~90%; activity at 10 min, 1 µM [4]: 115%; activity at 10 min, 10 µM [4]: 104%; activity at 10 min, 100 µM [4]: 33.4%
O=C1C[C@@H](c2ccc(O)cc2)Oc2cc(O)cc(O)c21 [Narigenin] | inhibition effects | 29.41% | 34.90% | 17.26% | enhancing effect | 116.45% | 107.17% | 41.64% | inhibition of dermal CYP1A activity ([1]; compound 100 μM): about 83%; inhibitory effect on liver CYP1A activity, in words [3]: inhibitory effects
C[C@@H]1O[C@@H](O[C@H]2[C@H](Oc3cc(O)c4c(c3)O[C@H](c3ccc(O)cc3)CC4=O)O[C@H](CO)[C@@H](O)[C@@H]2O)[C@H](O)[C@H](O)[C@H]1O [Narigin] | inhibition effects | 149.99% | 103.30% | 77.31% | enhancing effect; also recorded: most enhancing effect | 138.88% | 119.79% | 120.55% | enhancing effect on dermal CYP1A activity, in words [1]: enhancing effects; also recorded: strongest enhancing effect; enhancement of dermal CYP1A activity ([1]; compound 1 μM): about 50%; inhibition of dermal CYP1A activity ([1]; compound 100 μM): about 23%; enhancing effect on liver CYP1A activity ([3]; compound 100 μM): about 21%
C=C[C@H]1[C@H](O[C@@H]2O[C@H](CO)[C@@H](O)[C@H](O)[C@H]2O)OC=C2C(=O)OCC[C@]21O [Swertiamarin] | – | – | – | – | – | – | – | – | activity at 10 min, 1 µM ([2]; pH 7.8): 98.5%; activity at 10 min, 10 µM ([2]; pH 7.8): 96.5%; activity at 10 min, 100 µM ([2]; pH 7.8): 105%
O=C/C=C/c1ccccc1 [Trans-cinnamaldehyde] | – | – | – | – | – | – | – | – | inhibition at 10 min, 100 µM ([2]; pH 7.8): ~80%
O=C(O)/C=C/c1ccc(O)cc1O [Umbellic acid] | – | – | – | – | enhancing effect | – | – | – | activity at 10 min, 100 µM [4]: 121%
COc1c(O)cc2oc(Oc3ccc(O)cc3)cc(=O)c2c1O [capillarisin, Capillarisin] | strong inhibitory effects | – | – | – | – | – | – | – | –
O=c1cc(-c2ccc(O)c(O)c2)oc2cc(O)c([C@@H]3O[C@H](CO)[C@@H](O)[C@H](O)[C@H]3O)c(O)c12 [homoorientin] | strong inhibitory effects | – | – | – | – | – | – | – | –
